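Values below derive from 48-hour exposures of cells grown in 96-well plates, with endpoints linearly interpolated between the two concentrations bracketing the appropriate inhibition level. TGI denotes the concentration required for complete inhibition of growth.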
How the values were obtained:
Assay in all cases: NCI anticancer screen, dose series, 48 h
IGROV1 ovarian = system: IGROV1 ovarian
CCRF-CEM leukemia = system: CCRF-CEM leukemia
U251 CNS = system: U251 CNS
MDA-MB-435 = system: MDA-MB-435
SNB-75 CNS = system: SNB-75 CNS
HOP-62 NSCLC = system: HOP-62 NSCLC
KM12 colon = system: KM12 colon
NCI-H226 lung = system: NCI-H226 lung
SF-295 CNS = system: SF-295 CNS
MOLT-4 leukemia = system: MOLT-4 leukemia
A498 renal = system: A498 renal
LOX IMVI melanoma = system: LOX IMVI melanoma
BT-549 breast = system: BT-549 breast
HCT-15 colon = system: HCT-15 colon
UO-31 renal = system: UO-31 renal
MCF7 breast = system: MCF7 breast
786-0 renal = system: 786-0 renal
CAKI-1 renal = system: CAKI-1 renal
SN12C renal = system: SN12C renal
SF-268 CNS = system: SF-268 CNS
MDA-MB-231 breast = system: MDA-MB-231 breast
NCI-H23 lung = system: NCI-H23 lung
A549 NSCLC = system: A549 NSCLC
HCC-2998 colon = system: HCC-2998 colon
MALME-3M melanoma = system: MALME-3M melanoma
K-562 leukemia = system: K-562 leukemia
HOP-92 NSCLC = system: HOP-92 NSCLC
MDA-N = system: MDA-N
PC-3 prostate = system: PC-3 prostate
HT29 colon = system: HT29 colon
UACC-257 melanoma = system: UACC-257 melanoma
SNB-19 CNS = system: SNB-19 CNS
NCI-H522 lung = system: NCI-H522 lung
SW-620 colon = system: SW-620 colon
OVCAR-3 ovarian = system: OVCAR-3 ovarian
M14 melanoma = system: M14 melanoma
RXF 393 renal = system: RXF 393 renal
SF-539 CNS = system: SF-539 CNS
DU-145 prostate = system: DU-145 prostate
SK-OV-3 ovarian = system: SK-OV-3 ovarian
HL-60(TB) leukemia = system: HL-60(TB) leukemia
ACHN renal = system: ACHN renal
SK-MEL-2 melanoma = system: SK-MEL-2 melanoma
RPMI-8226 leukemia = system: RPMI-8226 leukemia
OVCAR-8 ovarian = system: OVCAR-8 ovarian
NCI-H460 lung = system: NCI-H460 lung
NCI/ADR-RES ovarian = system: NCI/ADR-RES ovarian
HCT-116 colon = system: HCT-116 colon
EKVX NSCLC = system: EKVX NSCLC
OVCAR-5 ovarian = system: OVCAR-5 ovarian
TK-10 renal = system: TK-10 renal
SK-MEL-5 melanoma = system: SK-MEL-5 melanoma
COLO 205 colon = system: COLO 205 colon
SK-MEL-28 melanoma = system: SK-MEL-28 melanoma
UACC-62 melanoma = system: UACC-62 melanoma
OVCAR-4 ovarian = system: OVCAR-4 ovarian
HS 578T breast = system: HS 578T breast

## O=c1c2c(c1=O)C1(SCCCS1)c1cc(Cl)ccc1O2
IGROV1 ovarian
  TGI: > 100 µM
CCRF-CEM leukemia
  TGI: > 100 µM
U251 CNS
  TGI: > 100 µM
MDA-MB-435
  TGI: > 100 µM
SNB-75 CNS
  TGI: > 100 µM
HOP-62 NSCLC
  TGI: > 100 µM
KM12 colon
  TGI: > 100 µM
NCI-H226 lung
  TGI: > 100 µM
SF-295 CNS
  TGI: > 100 µM
MOLT-4 leukemia
  TGI: > 100 µM
A498 renal
  TGI: > 100 µM
LOX IMVI melanoma
  TGI: > 100 µM
BT-549 breast
  TGI: > 100 µM
HCT-15 colon
  TGI: > 100 µM
UO-31 renal
  TGI: > 100 µM
MCF7 breast
  TGI: > 100 µM
786-0 renal
  TGI: > 100 µM
CAKI-1 renal
  TGI: > 100 µM
SN12C renal
  TGI: > 100 µM
SF-268 CNS
  TGI: > 100 µM
MDA-MB-231 breast
  TGI: > 100 µM
NCI-H23 lung
  TGI: > 100 µM
A549 NSCLC
  TGI: > 100 µM
HCC-2998 colon
  TGI: > 100 µM
MALME-3M melanoma
  TGI: > 100 µM
K-562 leukemia
  TGI: > 100 µM
HOP-92 NSCLC
  TGI: > 100 µM
MDA-N
  TGI: > 100 µM
PC-3 prostate
  TGI: > 100 µM
HT29 colon
  TGI: > 100 µM
UACC-257 melanoma
  TGI: > 100 µM
SNB-19 CNS
  TGI: > 100 µM
NCI-H522 lung
  TGI: > 100 µM
SW-620 colon
  TGI: > 100 µM
OVCAR-3 ovarian
  TGI: > 100 µM
M14 melanoma
  TGI: > 100 µM
RXF 393 renal
  TGI: > 100 µM
SF-539 CNS
  TGI: > 100 µM
DU-145 prostate
  TGI: > 100 µM
SK-OV-3 ovarian
  TGI: > 100 µM
HL-60(TB) leukemia
  TGI: > 100 µM
ACHN renal
  TGI: > 100 µM
SK-MEL-2 melanoma
  TGI: > 100 µM
RPMI-8226 leukemia
  TGI: > 100 µM
OVCAR-8 ovarian
  TGI: > 100 µM
NCI-H460 lung
  TGI: > 100 µM
NCI/ADR-RES ovarian
  TGI: > 100 µM
HCT-116 colon
  TGI: > 100 µM
EKVX NSCLC
  TGI: > 100 µM
OVCAR-5 ovarian
  TGI: > 100 µM
TK-10 renal
  TGI: > 100 µM
SK-MEL-5 melanoma
  TGI: > 100 µM
COLO 205 colon
  TGI: > 100 µM
SK-MEL-28 melanoma
  TGI: > 100 µM
UACC-62 melanoma
  TGI: > 100 µM
OVCAR-4 ovarian
  TGI: > 100 µM

## COc1cc2c(cc1OC)CC(=O)c1cc(OC)c(OC)cc1/C=C\2
IGROV1 ovarian
  TGI: > 12.5 µM
CCRF-CEM leukemia
  TGI: > 12.5 µM
U251 CNS
  TGI: > 12.5 µM
MDA-MB-435
  TGI: > 12.5 µM
SNB-75 CNS
  TGI: > 12.5 µM
HOP-62 NSCLC
  TGI: > 12.5 µM
KM12 colon
  TGI: > 12.5 µM
NCI-H226 lung
  TGI: > 12.5 µM
SF-295 CNS
  TGI: > 12.5 µM
MOLT-4 leukemia
  TGI: > 12.5 µM
A498 renal
  TGI: > 12.5 µM
LOX IMVI melanoma
  TGI: > 12.5 µM
HCT-15 colon
  TGI: > 12.5 µM
UO-31 renal
  TGI: > 12.5 µM
MCF7 breast
  TGI: > 12.5 µM
786-0 renal
  TGI: > 12.5 µM
CAKI-1 renal
  TGI: > 12.5 µM
SN12C renal
  TGI: > 12.5 µM
SF-268 CNS
  TGI: > 12.5 µM
MDA-MB-231 breast
  TGI: > 12.5 µM
NCI-H23 lung
  TGI: > 12.5 µM
A549 NSCLC
  TGI: > 12.5 µM
MALME-3M melanoma
  TGI: > 12.5 µM
K-562 leukemia
  TGI: > 12.5 µM
HOP-92 NSCLC
  TGI: > 12.5 µM
MDA-N
  TGI: 7.36 µM
PC-3 prostate
  TGI: > 12.5 µM
HT29 colon
  TGI: > 12.5 µM
UACC-257 melanoma
  TGI: > 12.5 µM
SNB-19 CNS
  TGI: > 12.5 µM
NCI-H522 lung
  TGI: > 12.5 µM
SW-620 colon
  TGI: > 12.5 µM
OVCAR-3 ovarian
  TGI: > 12.5 µM
M14 melanoma
  TGI: > 12.5 µM
RXF 393 renal
  TGI: > 12.5 µM
SF-539 CNS
  TGI: > 12.5 µM
DU-145 prostate
  TGI: > 12.5 µM
SK-OV-3 ovarian
  TGI: > 12.5 µM
HL-60(TB) leukemia
  TGI: 7.05 µM
HS 578T breast
  TGI: > 12.5 µM
ACHN renal
  TGI: > 12.5 µM
SK-MEL-2 melanoma
  TGI: > 12.5 µM
RPMI-8226 leukemia
  TGI: > 12.5 µM
OVCAR-8 ovarian
  TGI: > 12.5 µM
NCI-H460 lung
  TGI: > 12.5 µM
NCI/ADR-RES ovarian
  TGI: > 12.5 µM
HCT-116 colon
  TGI: > 12.5 µM
EKVX NSCLC
  TGI: > 12.5 µM
OVCAR-5 ovarian
  TGI: > 12.5 µM
TK-10 renal
  TGI: > 12.5 µM
SK-MEL-5 melanoma
  TGI: > 12.5 µM
COLO 205 colon
  TGI: > 12.5 µM
SK-MEL-28 melanoma
  TGI: > 12.5 µM
UACC-62 melanoma
  TGI: > 12.5 µM
OVCAR-4 ovarian
  TGI: > 12.5 µM
